#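 Exposure lasted 48 hours, with cells grown in 96-well plates and compounds tested at five concentrations. Here, GI50 denotes the concentration required for 50% inhibition of growth. TGI denotes the concentration required for complete inhibition of growth.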
# Columns and labels:
# Assay in all cases: NCI anticancer screen, dose series, 48 h
# A498 renal = system: A498 renal
# OVCAR-4 ovarian = system: OVCAR-4 ovarian
# SN12C renal = system: SN12C renal
# NCI-H226 lung = system: NCI-H226 lung
# HT29 colon = system: HT29 colon
# CCRF-CEM leukemia = system: CCRF-CEM leukemia
# LOX IMVI melanoma = system: LOX IMVI melanoma
# SNB-19 CNS = system: SNB-19 CNS
# UACC-62 melanoma = system: UACC-62 melanoma
# SF-268 CNS = system: SF-268 CNS
# M14 melanoma = system: M14 melanoma
# SF-295 CNS = system: SF-295 CNS
# TK-10 renal = system: TK-10 renal
# HL-60(TB) leukemia = system: HL-60(TB) leukemia
# MDA-MB-231 breast = system: MDA-MB-231 breast
# KM12 colon = system: KM12 colon
# MCF7 breast = system: MCF7 breast
# UO-31 renal = system: UO-31 renal
# RXF 393 renal = system: RXF 393 renal
# HOP-62 NSCLC = system: HOP-62 NSCLC
# T-47D breast = system: T-47D breast
# SNB-75 CNS = system: SNB-75 CNS
# UACC-257 melanoma = system: UACC-257 melanoma
# SK-OV-3 ovarian = system: SK-OV-3 ovarian
# SK-MEL-28 melanoma = system: SK-MEL-28 melanoma
# IGROV1 ovarian = system: IGROV1 ovarian
# SF-539 CNS = system: SF-539 CNS
# CAKI-1 renal = system: CAKI-1 renal
# NCI-H460 lung = system: NCI-H460 lung
# 786-0 renal = system: 786-0 renal
# A549 NSCLC = system: A549 NSCLC
# HCT-116 colon = system: HCT-116 colon
# NCI-H23 lung = system: NCI-H23 lung
# SW-620 colon = system: SW-620 colon
# HCC-2998 colon = system: HCC-2998 colon
# HOP-92 NSCLC = system: HOP-92 NSCLC
# OVCAR-3 ovarian = system: OVCAR-3 ovarian
# SR leukemia = system: SR leukemia
# U251 CNS = system: U251 CNS
# HS 578T breast = system: HS 578T breast
# PC-3 prostate = system: PC-3 prostate
# OVCAR-5 ovarian = system: OVCAR-5 ovarian
# EKVX NSCLC = system: EKVX NSCLC
# OVCAR-8 ovarian = system: OVCAR-8 ovarian
# COLO 205 colon = system: COLO 205 colon
# RPMI-8226 leukemia = system: RPMI-8226 leukemia
# K-562 leukemia = system: K-562 leukemia
# NCI-H522 lung = system: NCI-H522 lung
# MALME-3M melanoma = system: MALME-3M melanoma
# ACHN renal = system: ACHN renal
# BT-549 breast = system: BT-549 breast
# MDA-MB-435 = system: MDA-MB-435
# HCT-15 colon = system: HCT-15 colon
# DU-145 prostate = system: DU-145 prostate
# NCI/ADR-RES ovarian = system: NCI/ADR-RES ovarian
# SK-MEL-2 melanoma = system: SK-MEL-2 melanoma
# SK-MEL-5 melanoma = system: SK-MEL-5 melanoma
# MOLT-4 leukemia = system: MOLT-4 leukemia
compound,measurement,setting,value
COc1ccccc1CNCCCN1C(=O)c2ccc3c4c(ccc(c24)C1=O)C(=O)N(CCCCNCCCN)C3=O,GI50,A498 renal,3.12 µM
same,TGI,A498 renal,12.8 µM
same,GI50,OVCAR-4 ovarian,0.458 µM
same,TGI,OVCAR-4 ovarian,1.24 µM
same,GI50,SN12C renal,0.704 µM
same,TGI,SN12C renal,2.09 µM
same,GI50,NCI-H226 lung,2.26 µM
same,TGI,NCI-H226 lung,9.24 µM
same,GI50,HT29 colon,0.95 µM
same,TGI,HT29 colon,3.37 µM
same,GI50,CCRF-CEM leukemia,0.752 µM
same,TGI,CCRF-CEM leukemia,5.17 µM
same,GI50,LOX IMVI melanoma,0.654 µM
same,TGI,LOX IMVI melanoma,1.69 µM
same,GI50,SNB-19 CNS,1.31 µM
same,TGI,SNB-19 CNS,2.72 µM
same,GI50,UACC-62 melanoma,1.01 µM
same,TGI,UACC-62 melanoma,2.68 µM
same,GI50,SF-268 CNS,1.57 µM
same,TGI,SF-268 CNS,7.27 µM
same,GI50,M14 melanoma,1.89 µM
same,TGI,M14 melanoma,3.5 µM
same,GI50,SF-295 CNS,3.65 µM
same,TGI,SF-295 CNS,17.4 µM
same,GI50,TK-10 renal,2.62 µM
same,TGI,TK-10 renal,8.07 µM
same,GI50,HL-60(TB) leukemia,0.867 µM
same,TGI,HL-60(TB) leukemia,2.7 µM
same,GI50,MDA-MB-231 breast,2.64 µM
same,TGI,MDA-MB-231 breast,13.2 µM
same,GI50,KM12 colon,2.53 µM
same,TGI,KM12 colon,9.7 µM
same,GI50,MCF7 breast,0.472 µM
same,TGI,MCF7 breast,1.35 µM
same,GI50,UO-31 renal,3.5 µM
same,TGI,UO-31 renal,14.4 µM
same,GI50,RXF 393 renal,0.807 µM
same,TGI,RXF 393 renal,2.3 µM
same,GI50,HOP-62 NSCLC,2.93 µM
same,TGI,HOP-62 NSCLC,10.4 µM
same,GI50,T-47D breast,1.13 µM
same,TGI,T-47D breast,3.65 µM
same,GI50,SNB-75 CNS,7.13 µM
same,GI50,UACC-257 melanoma,0.698 µM
same,TGI,UACC-257 melanoma,2.08 µM
same,GI50,SK-OV-3 ovarian,3.74 µM
same,TGI,SK-OV-3 ovarian,15.9 µM
same,GI50,SK-MEL-28 melanoma,1.59 µM
same,TGI,SK-MEL-28 melanoma,3.55 µM
same,GI50,IGROV1 ovarian,1.43 µM
same,TGI,IGROV1 ovarian,3.86 µM
same,GI50,SF-539 CNS,1.68 µM
same,TGI,SF-539 CNS,3.19 µM
same,GI50,CAKI-1 renal,13.1 µM
same,TGI,CAKI-1 renal,34.8 µM
same,GI50,NCI-H460 lung,0.825 µM
same,TGI,NCI-H460 lung,2.82 µM
same,GI50,786-0 renal,2.25 µM
same,TGI,786-0 renal,9.35 µM
same,GI50,A549 NSCLC,1.58 µM
same,TGI,A549 NSCLC,3.5 µM
same,GI50,HCT-116 colon,0.648 µM
same,TGI,HCT-116 colon,1.94 µM
same,GI50,NCI-H23 lung,0.594 µM
same,TGI,NCI-H23 lung,1.63 µM
same,GI50,SW-620 colon,0.636 µM
same,TGI,SW-620 colon,2 µM
same,GI50,HCC-2998 colon,1.12 µM
same,TGI,HCC-2998 colon,3.03 µM
same,GI50,HOP-92 NSCLC,2.01 µM
same,TGI,HOP-92 NSCLC,7.04 µM
same,GI50,OVCAR-3 ovarian,0.334 µM
same,TGI,OVCAR-3 ovarian,1.14 µM
same,GI50,SR leukemia,0.362 µM
same,TGI,SR leukemia,> 23.6 µM
same,GI50,U251 CNS,0.831 µM
same,TGI,U251 CNS,2.28 µM
same,GI50,HS 578T breast,2.27 µM
same,TGI,HS 578T breast,8.2 µM
same,GI50,PC-3 prostate,2.29 µM
same,TGI,PC-3 prostate,9.82 µM
same,GI50,OVCAR-5 ovarian,2.95 µM
same,TGI,OVCAR-5 ovarian,9.02 µM
same,GI50,EKVX NSCLC,2 µM
same,TGI,EKVX NSCLC,5.75 µM
same,GI50,OVCAR-8 ovarian,0.71 µM
same,TGI,OVCAR-8 ovarian,3.67 µM
same,GI50,COLO 205 colon,0.524 µM
same,TGI,COLO 205 colon,1.08 µM
same,GI50,RPMI-8226 leukemia,1.91 µM
same,TGI,RPMI-8226 leukemia,10.7 µM
same,GI50,K-562 leukemia,1.9 µM
same,TGI,K-562 leukemia,4.87 µM
same,GI50,NCI-H522 lung,1.46 µM
same,TGI,NCI-H522 lung,3.25 µM
same,GI50,MALME-3M melanoma,0.871 µM
same,TGI,MALME-3M melanoma,2.18 µM
same,GI50,ACHN renal,3.68 µM
same,TGI,ACHN renal,17.3 µM
same,GI50,BT-549 breast,2.23 µM
same,TGI,BT-549 breast,4.51 µM
same,GI50,MDA-MB-435,0.574 µM
same,TGI,MDA-MB-435,1.16 µM
same,GI50,HCT-15 colon,4.43 µM
same,TGI,HCT-15 colon,18.6 µM
same,GI50,DU-145 prostate,1.59 µM
same,TGI,DU-145 prostate,2.99 µM
same,GI50,NCI/ADR-RES ovarian,5.98 µM
same,TGI,NCI/ADR-RES ovarian,34.2 µM
same,GI50,SK-MEL-2 melanoma,1.09 µM
same,TGI,SK-MEL-2 melanoma,3.09 µM
same,GI50,SK-MEL-5 melanoma,0.467 µM
same,TGI,SK-MEL-5 melanoma,0.95 µM
same,GI50,MOLT-4 leukemia,0.389 µM
same,TGI,MOLT-4 leukemia,1.7 µM
CC1=C(C(=O)c2ccccc2)C23C(=O)N(c4ccccc4)C(=O)C2=C(O)C=CC3(O)N1 (stereo unspecified),TGI,A498 renal,> 100 µM
same,TGI,OVCAR-4 ovarian,> 100 µM
same,TGI,SN12C renal,> 100 µM
same,TGI,NCI-H226 lung,> 100 µM
same,TGI,HT29 colon,32.3 µM
same,TGI,CCRF-CEM leukemia,> 100 µM
same,TGI,LOX IMVI melanoma,61.1 µM
same,TGI,SNB-19 CNS,> 100 µM
same,TGI,UACC-62 melanoma,48 µM
same,TGI,SF-268 CNS,> 100 µM
same,TGI,M14 melanoma,> 100 µM
same,TGI,SF-295 CNS,> 100 µM
same,TGI,TK-10 renal,> 100 µM
same,TGI,HL-60(TB) leukemia,50.7 µM
same,TGI,MDA-MB-231 breast,> 100 µM
same,TGI,KM12 colon,53.5 µM
same,TGI,MCF7 breast,> 100 µM
same,TGI,UO-31 renal,37.8 µM
same,TGI,RXF 393 renal,43 µM
same,TGI,HOP-62 NSCLC,> 100 µM
same,TGI,T-47D breast,> 100 µM
same,TGI,SNB-75 CNS,77.5 µM
same,TGI,UACC-257 melanoma,> 100 µM
same,TGI,SK-MEL-28 melanoma,39.2 µM
same,TGI,IGROV1 ovarian,51.9 µM
same,TGI,SF-539 CNS,> 100 µM
same,TGI,CAKI-1 renal,> 100 µM
same,TGI,NCI-H460 lung,> 100 µM
same,TGI,786-0 renal,> 100 µM
same,TGI,A549 NSCLC,> 100 µM
same,TGI,HCT-116 colon,> 100 µM
same,TGI,NCI-H23 lung,> 100 µM
same,TGI,SW-620 colon,72.7 µM
same,TGI,HCC-2998 colon,56.4 µM
same,TGI,HOP-92 NSCLC,60 µM
same,TGI,OVCAR-3 ovarian,58.9 µM
same,TGI,SR leukemia,46.3 µM
same,TGI,U251 CNS,81.5 µM
same,TGI,HS 578T breast,> 100 µM
same,TGI,PC-3 prostate,> 100 µM
same,TGI,OVCAR-5 ovarian,> 100 µM
same,TGI,EKVX NSCLC,> 100 µM
same,TGI,OVCAR-8 ovarian,98.9 µM
same,TGI,COLO 205 colon,> 100 µM
same,TGI,RPMI-8226 leukemia,> 100 µM
same,TGI,K-562 leukemia,75.1 µM
same,TGI,NCI-H522 lung,28.9 µM
same,TGI,MALME-3M melanoma,65.1 µM
same,TGI,ACHN renal,40.4 µM
same,TGI,BT-549 breast,49.2 µM
same,TGI,MDA-MB-435,> 100 µM
same,TGI,HCT-15 colon,> 100 µM
same,TGI,DU-145 prostate,> 100 µM
same,TGI,NCI/ADR-RES ovarian,> 100 µM
same,TGI,SK-MEL-2 melanoma,57.3 µM
same,TGI,SK-MEL-5 melanoma,41.9 µM
